This note sets out measurements from patent US20260021085A1, “CYCLOALKYL CARBOXYLIC ACID DERIVATIVES AS INHIBITORS OF GLYCOGEN SYNTHASE 1 (GYS1) AND METHODS OF USE THEREOF” (Maze Therapeutics, Inc., priority 2022, published 2026).

The structures appear in SMILES notation.

For experiment [1], the target named is hGYS1 enzyme, glycogen synthesis in HeLa cells (Homo sapiens (Human), UniProt P13807). Briefly: GYS1 cell based assay (glycogen synthesis in HeLa cells, Glucose-glo). To be noted: starved HeLa cells, 24 h incubation; geometric mean of at least 2 assay runs; read-out: Cellular IC50. An excerpt:
The GYS1 cell based assay is a bioluminescent assay that quantifies the glucose resulting from glycogen digestion; the quantified glucose is an indirect measure of GYS1 glycogen synthesis. Newly synthesized glycogen is digested using Glucoamylase; the resulting glucose is quantified by using the Glucose-glo assay kit from Promega. Glucose-glo works by coupling glucose oxidation and NADH production with a bioluminescent system that is activated with NADH. Glucose is oxidized by Glucose dehydrogenase and the reaction reduces NAD+ to NADH; NADH activates Reductase which reduces a pro-luciferin Reductase Substrate to luciferin. Luciferin is detected in a luciferase reaction using Ultra-Glo rLuciferase and ATP, and the luminesce produced is proportional to the glucose in the sample. The luminescence is measured as a single point read in a plate reader.
Compounds that inhibit the hGYS1 enzyme and, subsequently, the glycogen synthesis in cells, were tested using assay ready plates (white, clear bottom 384 well plates) in a final DMSO reaction volume of 1% DMSO. Compounds in the assay ready plates were mixed with media with no additives, except for 20 mM glucose prior to cell addition. HeLa cells were starved in media with no additives, except for 1× Glutamax for 24 h. Starved HeLa cells were plated, in a 1:1 ratio to the media in the assay ready plate and incubated for 24 h at 37° C. and 5% CO2. Cells were washed in 1×PBS buffer and lysed in lysis buffer containing 50% 1×PBS and 25% 0.3 N HCl of the final volume in the well or reaction volume; cells were incubated with lysis buffer for 10 minutes and quenched with the remaining 25% of the reaction volume that consisted of 450 mM Tris pH 8.0. Lysates were mixed in a 1:1 ratio with Glucoamylase in 100 mM Sodium Acetate buffer, pH 5.3; the mixture was incubated for 1 h at 37° C. The digested lysate was mixed in a 1:1 ratio with Glucose-glo detection mixture as per vendor recommendations (Luciferase detection buffer, Reductase, Reductase substrate, Glucose dehydrogenase, and NAD) in read-out plates (solid white 384-well plates) and incubated for 1 h at RT. The plates were read using a plate reader with luminescence capabilities. Each compound concentration Relative Luminescence Unit (RLU) was averaged and normalized to the average RLU of the positive and negative controls to obtain a percentage inhibition. The normalized data vs. concentration was plotted; to determine the half-maximal concentration (IC50), the Levenberg-Marquardt algorithm was used to fit a Hill equation to the dose response data.
(§1) Unless otherwise specified, IC50 values are reported as the geometric mean of at least 2 assay runs on separate days. […] Unless otherwise specified, IC50 values are reported as the geometric mean of at least two assay runs on separate days. Each run represents the average of a technical replicate, where each compound was assayed twice in the same plate.

In another experiment the target is human GYS2 (Homo sapiens (Human), UniProt P54840). Kind of experiment: GYS2 coupled enzyme assay (PK/LDH). The class given is biochemical. To be noted: recombinant hGYS2/GN1 protein; geometric mean of at least 2 assay runs.
Source text: (§2) The GYS2 coupled enzyme assay is a kinetic biochemical assay that indirectly quantifies the rate of glycogen synthesis by coupling the conversion of GYS2 substrate UDP-glucose into UDP with downstream enzymatic reactions. UDP is released from UDP-glucose as glucose monomers are linked into the growing glycogen strand by GYS2. The coupled assay then proceeds with pyruvate kinase utilizing UDP and phospho (enol) pyruvate (PEP) to form pyruvate. Lactate dehydrogenase then converts pyruvate and NADH into lactate and NAD+. Oxidation of NADH to NAD+ can be measured continuously with a plate reader by quantifying the decrease in NADH absorbance at 340 nm over time.
Compounds that inhibit the hGYS2 enzyme and, subsequently, the downstream conversion of NADH to NAD+, were tested using assay ready plates (black, clear bottom 384 well plates) in a final DMSO reaction volume of 2.5% DMSO. The Assay Buffer contained 50 mM Tris pH 7.5, 2 mM MgCl2, and 100 mM KCl. Fresh stocks of BSA at a final concentration of 0.02% and TCEP 1 mM were added before splitting buffer into hGYS2 buffer and substrate buffer. To the hGYS2 buffer, rabbit liver glycogen was added at a final concentration of 0.2% glycogen. Glucose-6-Phosphate was added at 2 mM, recombinant hGYS2/GN1 protein was added at 200 nM to the substrate buffer, phosphoenolpyruvate (PEP) was added at 2 mM, UDP-Glucose was added at 2 mM, NADH was added at 0.6 mM, and Pyruvate Kinase/Lactate Dehydrogenase was added at 20 units/mL. The reaction was initiated by mixing hGYS2 buffer and substrate buffer at a 1:1 ratio. Both buffers were plated using a liquid dispensing device with hGYS2 buffer plated first followed by the substrate buffer. Plates were spun briefly to eliminate air bubbles and are immediately read in continuous mode at an absorbance of 340 nm, for 10 time points in one-minute increments, for a total of 10 minutes. The slope from these 10 time points was normalized to the positive and negative control wells.
as §1

The next experiment addresses human GYS1 (Homo sapiens (Human), UniProt P13807). Kind of experiment: GYS1 coupled enzyme assay (PK/LDH). The class given is biochemical. The note with it: recombinant hGYS1/GN1 protein; geometric mean of at least 2 assay runs.
Source text: as §2, with “GYS1” for “GYS2”, “GYS1.” for “GYS2.”
Compounds that inhibit the hGYS1 enzyme and, subsequently, the downstream conversion of NADH to NAD+, were tested using assay ready plates (black, clear bottom 384 well plates) in a final DMSO reaction volume of 2.5% DMSO. The Assay Buffer contained 50 mM Tris pH 7.5, 2 mM MgCl2, and 100 mM KCl. Fresh stocks of BSA at a final concentration of 0.02% and TCEP at 1 mM were added before splitting buffer into hGYS1 buffer and substrate buffer. To the hGYS1 buffer, rabbit liver glycogen was added at a final concentration of 0.2% glycogen. Glucose-6-Phosphate was added at 1 mM, recombinant hGYS1/GN1 protein was added at 50 nM to the substrate buffer, phosphoenolpyruvate (PEP) was added at 2 mM, UDP-Glucose was added at 0.8 mM, NADH) was added at 0.6 mM, and Pyruvate Kinase/Lactate Dehydrogenase was added at 20 units/mL. The reaction was initiated by mixing hGYS1 buffer and substrate buffer at a 1:1 ratio. Both buffers were plated using a liquid dispensing device with hGYS1 buffer plated first followed by the substrate buffer. Plates were spun briefly to eliminate air bubbles and are immediately read in continuous mode at an absorbance of 340 nm, for 10 time points in one-minute increments, for a total of 10 minutes. The slope from these 10 time points was normalized to the positive and negative control wells.
Unless otherwise specified, IC50 values are reported as the geometric mean of at least 2 assay runs on separate days. Each run represents the average of a technical replicate, where each compound was assayed twice in the same plate.

human GYS2, sequence (P54840 whole entry): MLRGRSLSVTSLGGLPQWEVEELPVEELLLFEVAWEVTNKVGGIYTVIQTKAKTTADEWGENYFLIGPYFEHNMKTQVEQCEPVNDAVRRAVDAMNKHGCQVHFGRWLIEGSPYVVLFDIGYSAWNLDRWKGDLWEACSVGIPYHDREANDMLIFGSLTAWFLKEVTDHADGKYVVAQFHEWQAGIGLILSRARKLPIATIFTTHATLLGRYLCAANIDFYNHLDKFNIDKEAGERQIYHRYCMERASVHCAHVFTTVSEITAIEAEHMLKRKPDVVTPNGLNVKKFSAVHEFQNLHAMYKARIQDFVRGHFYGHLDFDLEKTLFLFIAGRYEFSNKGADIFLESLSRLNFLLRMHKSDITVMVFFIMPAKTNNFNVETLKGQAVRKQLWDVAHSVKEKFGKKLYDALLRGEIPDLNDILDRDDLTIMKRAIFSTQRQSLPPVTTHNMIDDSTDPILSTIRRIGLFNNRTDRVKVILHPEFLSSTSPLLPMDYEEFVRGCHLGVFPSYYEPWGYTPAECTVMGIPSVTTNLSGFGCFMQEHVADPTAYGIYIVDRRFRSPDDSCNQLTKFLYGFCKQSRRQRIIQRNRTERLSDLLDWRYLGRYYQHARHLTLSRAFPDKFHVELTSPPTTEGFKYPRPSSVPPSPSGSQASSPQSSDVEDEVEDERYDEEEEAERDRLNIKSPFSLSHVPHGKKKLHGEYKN
human GYS2, sequence (P46976 whole entry partner): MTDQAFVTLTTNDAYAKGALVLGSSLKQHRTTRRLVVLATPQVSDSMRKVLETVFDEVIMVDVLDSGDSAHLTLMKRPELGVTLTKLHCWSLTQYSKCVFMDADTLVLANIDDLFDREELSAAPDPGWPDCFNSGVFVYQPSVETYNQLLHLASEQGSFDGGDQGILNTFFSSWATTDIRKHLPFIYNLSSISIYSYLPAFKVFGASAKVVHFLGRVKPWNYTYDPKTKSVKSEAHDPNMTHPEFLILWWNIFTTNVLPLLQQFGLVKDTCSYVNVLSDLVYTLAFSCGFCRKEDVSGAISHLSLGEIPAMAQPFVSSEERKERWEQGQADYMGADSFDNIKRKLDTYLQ
human GYS1, sequence (P13807 whole entry): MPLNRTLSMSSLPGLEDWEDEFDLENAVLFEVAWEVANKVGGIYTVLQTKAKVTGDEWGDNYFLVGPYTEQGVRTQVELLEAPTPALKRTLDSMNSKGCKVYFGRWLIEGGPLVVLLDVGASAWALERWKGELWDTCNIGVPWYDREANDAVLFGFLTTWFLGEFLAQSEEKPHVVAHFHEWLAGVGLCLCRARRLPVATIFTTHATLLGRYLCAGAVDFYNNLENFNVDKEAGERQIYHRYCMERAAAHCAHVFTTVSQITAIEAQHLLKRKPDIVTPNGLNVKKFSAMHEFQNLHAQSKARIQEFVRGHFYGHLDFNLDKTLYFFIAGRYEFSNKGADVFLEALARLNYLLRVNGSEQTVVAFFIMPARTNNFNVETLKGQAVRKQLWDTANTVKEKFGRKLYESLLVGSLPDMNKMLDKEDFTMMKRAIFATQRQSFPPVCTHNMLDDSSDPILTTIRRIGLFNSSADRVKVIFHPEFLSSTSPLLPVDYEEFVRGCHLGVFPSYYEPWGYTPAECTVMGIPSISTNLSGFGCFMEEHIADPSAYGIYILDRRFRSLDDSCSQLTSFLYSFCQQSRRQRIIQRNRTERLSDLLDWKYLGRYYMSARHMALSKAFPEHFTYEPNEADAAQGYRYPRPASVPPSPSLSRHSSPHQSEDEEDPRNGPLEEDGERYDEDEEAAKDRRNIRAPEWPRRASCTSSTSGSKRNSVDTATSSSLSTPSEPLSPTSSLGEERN
human GYS1, sequence (P46976 whole entry partner): as the sequence (P46976 whole entry partner) above
hGYS1 enzyme, glycogen synthesis in HeLa cells, sequence (P13807 whole entry): as the sequence (P13807 whole entry) above

Take `O=C(O)[C@H]1CCC[C@H]1C(=O)N[C@@H](c1ccccc1)c1ccc(C2CCC2)c(F)c1` [Compound 18, (1S,2R)-2-(((S)-(4-cyclobutyl-3-fluorophenyl)(phenyl)methyl)carbamoyl)cyclopentane-1-carboxylic acid]: the half-inhibitory concentration (IC50) (usually the midpoint of a concentration-inhibition curve) in experiment [1] worked out at 16.6 µM; on human GYS2, 28.6 µM; on human GYS1, 384 nM.

On to `CC(C)c1ccc([C@@H](NC(=O)[C@@H]2CCC[C@@H]2C(=O)O)c2ccccc2)cc1F` [Compound 37, (1S,2R)-2-(((S)-(3-fluoro-4-isopropylphenyl)(phenyl)methyl)carbamoyl)cyclopentane-1-carboxylic acid], for which the IC50 in experiment [1] was found to be 3.69 µM; on human GYS2, 72.8 µM; on human GYS1, 236 nM.

Consider `Cc1ccccc1[C@H](NC(=O)[C@@H]1CCC[C@@H]1C(=O)O)c1ccc(C2CC2)cc1` [Compound 26, (1S,2R)-2-(((R)-(4-cyclopropylphenyl)(o-tolyl)methyl)carbamoyl)cyclopentane-1-carboxylic acid], for which the IC50 in experiment [1] was found to be 21.6 µM; on human GYS2 it was 15.5 µM; at human GYS1, 795 nM.

In the case of `CC(C)c1ccc([C@@H](NC(=O)[C@@H]2CCC[C@@H]2C(=O)O)c2cccs2)cc1` [Compound 45, (1S,2R)-2-(((R)-(4-isopropylphenyl)(thiophen-2-yl)methyl)carbamoyl)cyclopentane-1-carboxylic acid], the values for the half-maximal inhibitory concentration (IC50) (in experiment [1]; at human GYS2; at human GYS1) were 6.6 µM, 98 µM and 364 nM, respectively.

For `CC(C)c1ccc([C@@H](NC(=O)[C@@H]2CCC[C@@H]2C(=O)O)c2ccn[nH]2)cc1F` [Compound 27, (1S,2R)-2-(((R)-(3-fluoro-4-isopropylphenyl)(1H-pyrazol-5-yl)methyl)carbamoyl)cyclopentane-1-carboxylic acid], the 50% inhibitory concentration (IC50) is 46.3 µM in experiment [1], above 100 µM at human GYS2 and 1480 nM at human GYS1.

With `O=C(O)[C@H]1CCC[C@H]1C(=O)N[C@@H](c1ccccc1)c1ccc(C2CCC2)cn1` [Compound 15, (1S,2R)-2-(((S)-(5-cyclobutylpyridin-2-yl)(phenyl)methyl)carbamoyl)cyclopentane-1-carboxylic acid], the IC50 is 8.49 µM in experiment [1], above 100 µM at human GYS2 and 497 nM on human GYS1.

Take `CC(C)c1ccc([C@@H](NC(=O)[C@@H]2CCC[C@@H]2C(=O)O)c2cccc3c2NC(=O)CC3)cc1` [Compound 31, (1S,2R)-2-(((R)-(4-isopropylphenyl)(2-oxo-1,2,3,4-tetrahydroquinolin-8-yl)methyl)carbamoyl)cyclopentane-1-carboxylic acid]: the IC50 in experiment [1] was 12.3 µM; on human GYS2, above 100 µM; on human GYS1 it was 1090 nM.

For `COc1ccccc1[C@H](NC(=O)[C@@H]1CCC[C@@H]1C(=O)O)c1ccc(C(C)C)cc1` [Compound 39, (1S,2R)-2-(((R)-(4-isopropylphenyl)(2-methoxyphenyl)methyl)carbamoyl)cyclopentane-1-carboxylic acid], the IC50 in experiment [1] was 41.3 µM; at human GYS2 it was 66.4 µM; at human GYS1 it was 3400 nM.

Consider `Cc1ccccc1[C@H](NC(=O)[C@@H]1CCC[C@@H]1C(=O)O)c1ccc(C(C)C)c(F)c1` [Compound 23, (1S,2R)-2-(((R)-(3-fluoro-4-isopropylphenyl)(o-tolyl)methyl)carbamoyl)cyclopentane-1-carboxylic acid], for which the IC50 in experiment [1] stood at 5.36 µM; at human GYS2, 8.48 µM; at human GYS1 it was 166 nM.
